Test results from doi:10.1101/366146v2 (biorxiv, 2018).
Values after ≈ are worked out from the molar mass of the structure shown. Like-named read-outs stand apart in the source and are kept apart here. Each block holds one molecule with its values, some of them ahead of it.

Columns and labels:
Assay in all cases: microbe, parasite or virus in culture
Parameters in all cases: species or system Enterobacteriaceae strains
E. cloacae IMP-8 [1] = settings: Enterobacter cloacae, IMP8, read-out: MIC
E. coli NDM-4 [2] = settings: Escherichia coli, NDM4, read-out: MIC
E. cloacae VIM-1 [3] = settings: Enterobacter cloacae, VIM1, read-out: MIC
E. coli VIM-2 [4] = settings: Escherichia coli, VIM2, read-out: MIC
P. stuartii NDM-1 [5] = settings: Providencia stuartii, NDM1, read-out: MIC
P. rettgeri NDM-1 [6] = settings: Providencia rettgeri, NDM1, read-out: MIC
K. pneumoniae VIM-1 [7] = settings: Klebsiella pneumoniae, VIM1, read-out: MIC
K. pneumoniae IMP-8 [8] = settings: Klebsiella pneumoniae, IMP8, read-out: MIC
E. cloacae IMP-1 [9] = settings: Enterobacter cloacae, IMP1, read-out: MIC
E. coli ATCC 25922 [10] = settings: Escherichia coli, ATCC25922, read-out: MIC
K. pneumoniae IMP-1 [11] = settings: Klebsiella pneumoniae, IMP1, read-out: MIC
E. coli IMP-1 [12] = settings: Escherichia coli, IMP1, read-out: MIC
K. pneumoniae OXA-48 [13] = settings: Klebsiella pneumoniae, OXA48, read-out: MIC
E. coli NDM-1 [14] = settings: Escherichia coli, NDM1, read-out: MIC
[15] = system: K. pneumoniae ATCC BAA 1706; settings: Klebsiella pneumoniae, BAA1706, read-out: MIC
E. cloacae NDM-1 [16] = settings: Enterobacter cloacae, NDM1, read-out: MIC
E. coli VIM-1 [17] = settings: Escherichia coli, VIM1, read-out: MIC
C. freundii NDM-1 [18] = settings: Citrobacter freundii, NDM1, read-out: MIC
E. cloacae VIM-1 [19] = settings: Enterobacter cloacae, VIM1, read-out: MIC; remark: listed apart in the source
E. coli IMP-1 [20] = settings: Escherichia coli, IMP1, read-out: MIC; remark: listed apart in the source
K. pneumoniae IMP-8 [21] = settings: Klebsiella pneumoniae, IMP8, read-out: MIC; remark: listed apart in the source
E. coli VIM-1 [22] = settings: Escherichia coli, VIM1, read-out: MIC; remark: listed apart in the source
E. coli NDM-1 [23] = settings: Escherichia coli, NDM1, read-out: MIC; remark: listed apart in the source
K. pneumoniae OXA-48 [24] = settings: Klebsiella pneumoniae, OXA48, read-out: MIC; remark: listed apart in the source
E. cloacae IMP-8 [25] = settings: Enterobacter cloacae, IMP8, read-out: MIC; remark: listed apart in the source
[26] = system: K. pneumoniae ATCC BAA 1706; settings: Klebsiella pneumoniae, BAA1706, read-out: MIC; remark: listed apart in the source
E. cloacae IMP-1 [27] = settings: Enterobacter cloacae, IMP1, read-out: MIC; remark: listed apart in the source
E. coli ATCC 25922 [28] = settings: Escherichia coli, ATCC25922, read-out: MIC; remark: listed apart in the source
K. pneumoniae IMP-1 [29] = settings: Klebsiella pneumoniae, IMP1, read-out: MIC; remark: listed apart in the source
K. pneumoniae VIM-1 [30] = settings: Klebsiella pneumoniae, VIM1, read-out: MIC; remark: listed apart in the source
P. stuartii NDM-1 [31] = settings: Providencia stuartii, NDM1, read-out: MIC; remark: listed apart in the source
E. coli VIM-2 [32] = settings: Escherichia coli, VIM2, read-out: MIC; remark: listed apart in the source
E. cloacae NDM-1 [33] = settings: Enterobacter cloacae, NDM1, read-out: MIC; remark: listed apart in the source
E. coli NDM-4 [34] = settings: Escherichia coli, NDM4, read-out: MIC; remark: listed apart in the source
P. rettgeri NDM-1 [35] = settings: Providencia rettgeri, NDM1, read-out: MIC; remark: listed apart in the source
C. freundii NDM-1 [36] = settings: Citrobacter freundii, NDM1, read-out: MIC; remark: listed apart in the source

MIC (E. cloacae IMP-8 [1]): 8 µg/mL (≈ 20.9 µM)
MIC (E. coli NDM-4 [2]): 128 µg/mL (≈ 334 µM)
MIC (E. cloacae VIM-1 [3]): 8 µg/mL (≈ 20.9 µM)
MIC (E. coli VIM-2 [4]): 8 µg/mL (≈ 20.9 µM)
MIC (P. stuartii NDM-1 [5]): 16 µg/mL (≈ 41.7 µM)
MIC (P. rettgeri NDM-1 [6]): 64 µg/mL (≈ 167 µM)
MIC (K. pneumoniae VIM-1 [7]): 32 µg/mL (≈ 83.4 µM)
MIC (K. pneumoniae IMP-8 [8]): 16 µg/mL (≈ 41.7 µM)
MIC (E. cloacae IMP-1 [9]): 32 µg/mL (≈ 83.4 µM)
MIC (E. coli ATCC 25922 [10]): 0.03 µg/mL (≈ 0.0782 µM)
MIC (K. pneumoniae IMP-1 [11]): 32 µg/mL (≈ 83.4 µM)
MIC (E. coli IMP-1 [12]): 16 µg/mL (≈ 41.7 µM)
MIC (K. pneumoniae OXA-48 [13]): 8 µg/mL (≈ 20.9 µM)
MIC (E. coli NDM-1 [14]): 128 µg/mL (≈ 334 µM)
MIC [15]: 0.5 µg/mL (≈ 1.3 µM)
MIC (E. cloacae NDM-1 [16]): 16 µg/mL (≈ 41.7 µM)
MIC (E. coli VIM-1 [17]): 32 µg/mL (≈ 83.4 µM)
MIC (C. freundii NDM-1 [18]): 8 µg/mL (≈ 20.9 µM)
Structure (SMILES): C[C@@H](O)[C@H]1C(=O)N2C(C(=O)O)=C(S[C@@H]3CN[C@H](C(=O)N(C)C)C3)[C@H](C)[C@H]12 [MEM, meropenem]

MIC (E. cloacae VIM-1 [19]): 128 µg/mL (≈ 991 µM)
MIC (E. coli IMP-1 [20]): 512 µg/mL (≈ 3960 µM)
MIC (K. pneumoniae IMP-8 [21]): 1020 µg/mL (≈ 7930 µM)
MIC (E. coli VIM-1 [22]): 1020 µg/mL (≈ 7930 µM)
MIC (E. coli NDM-1 [23]): 1020 µg/mL (≈ 7930 µM)
MIC (K. pneumoniae OXA-48 [24]): 128 µg/mL (≈ 991 µM)
MIC (E. cloacae IMP-8 [25]): 512 µg/mL (≈ 3960 µM)
MIC [26]: 1020 µg/mL (≈ 7930 µM)
MIC (E. cloacae IMP-1 [27]): 512 µg/mL (≈ 3960 µM)
MIC (E. coli ATCC 25922 [28]): 1020 µg/mL (≈ 7930 µM)
MIC (K. pneumoniae IMP-1 [29]): 512 µg/mL (≈ 3960 µM)
MIC (K. pneumoniae VIM-1 [30]): 512 µg/mL (≈ 3960 µM)
MIC (P. stuartii NDM-1 [31]): > 1020 µg/mL
MIC (E. coli VIM-2 [32]): 128 µg/mL (≈ 991 µM)
MIC (E. cloacae NDM-1 [33]): > 1020 µg/mL
MIC (E. coli NDM-4 [34]): 1020 µg/mL (≈ 7930 µM)
MIC (P. rettgeri NDM-1 [35]): > 1020 µg/mL
MIC (C. freundii NDM-1 [36]): 1020 µg/mL (≈ 7930 µM)
Structure (SMILES): C1CNCCNCCN1 [compound 1, 1,4,7-triazacyclononane]
